Experiment: method code SF-HPLC, from DOI: 10.1016/j.ejmech.2014.10.073, PMID: 25462263
Conditions: pH 7.4

Work on `CCN(CC)C(=O)COc1cc(F)c(CC(=O)OCC(F)(F)F)cc1OC` yielded a logD of 2.49.
Molecule `CCOC(=O)Cc1cc(OC)c(OCC(=O)N(CC)CC)cc1F` has a logD of 2.07.
`CCCOc1cc(CC(=O)OC(C)C)c(F)cc1OCC(=O)N(CC)CC` showed a logD of 2.95.
In the case of `CCOc1cc(CC(=O)OC(C)C)c(F)cc1OCC(=O)N(CC)CC`, the logD is reported as 2.59.
With `CCOc1cc(CC(=O)OCC(F)(F)F)cc(F)c1OCC(=O)N(CC)CC` the logD was 2.78.
Work on `CCCOC(=O)Cc1cc(OC)c(OCC(=O)N(CC)CC)cc1F` yielded a logD of 2.36.
For `CCOC(=O)Cc1ccc(OCC(=O)N(CC)CC)c(F)c1OC`, the logD was 2.29.
For `CCOC(=O)Cc1cc(F)c(OCC(=O)N(CC)CC)c(OCC)c1`, the logD was 2.41.
`CCCOC(=O)Cc1cc(F)c(OCC(=O)N(CC)CC)c(OCC)c1` showed a logD of 2.63.
`CCOc1cc(CC(=O)OCC(C)C)c(F)cc1OCC(=O)N(CC)CC` gave a logD of 3.03.
`CCCOC(=O)Cc1cc(OCC)c(OCC(=O)N(CC)CC)cc1F` showed a logD of 2.72.
In the case of `CCOc1cc(CC(=O)OCCC(F)(F)F)c(F)cc1OCC(=O)N(CC)CC`, the logD is reported as 3.06.
In the case of `CCOc1cc(CC(=O)OC(C)C)cc(F)c1OCC(=O)N(CC)CC`, the logD is reported as 2.46.
With `CCCOC(=O)Cc1ccc(OCC(=O)N(CC)CC)c(OCC)c1` the logD was 2.67.
`CCN(CC)C(=O)COc1c(F)cc(CC(=O)OCCC(F)(F)F)cc1OC` gave a logD of 2.81.
Molecule `CCOc1cc(CC(=O)OCC(F)(F)F)c(F)cc1OCC(=O)N(CC)CC` has a logD of 2.9.
In the case of `CCN(CC)C(=O)COc1cc(F)c(CC(=O)OC(C)C)cc1OC`, the logD is reported as 2.19.
Molecule `CCN(CC)C(=O)COc1c(F)cc(CC(=O)OCC(F)(F)F)cc1OC` has a logD of 2.51.
In the case of `CCN(CC)C(=O)COc1ccc(CC(=O)OCCC(F)(F)F)c(OC)c1F`, the logD is reported as 2.83.
`CCOc1cc(CC(=O)OCCC(F)(F)F)cc(F)c1OCC(=O)N(CC)CC` gave a logD of 3.1.
Molecule `CCN(CC)C(=O)COc1cc(F)c(CC(=O)OCCC(F)(F)F)cc1OC` has a logD of 2.94.
`CCCOC(=O)Cc1ccc(OCC(=O)N(CC)CC)c(OC)c1` gave a logD of 2.6.
`CCOC(=O)Cc1cc(OCC)c(OCC(=O)N(CC)CC)cc1F` gave a logD of 2.57.

From the SangsterLogP compilation
